These results are taken from patent US4521537A, “Spiro[2H-1,4-benzodioxepin-3(5H)4'-piperidine and -3'-pyrrolidine] compounds and their use as antihypertensive agents” (Hoechst-Roussel Pharmaceuticals Incorporated, priority 1984, dated 1985).

For one assay, the system named is mice. As to the kind of experiment: phenylquinone-induced writhing test in mice (PQW), analgesia. Format: in vivo, male, CD-1 mice. Conditions: Mus musculus; for change in vivo at 20 mg/kg / change in vivo at 5 mg/kg / change in vivo at 10 mg/kg: read-out: PQW % (percent inhibition of writhing); for change in vivo at 5 mg/kg: 5 mg/kg SC; for ED50: read-out: ED50 (PQW). The protocol:
Compounds of this invention produce analgesia when administered to mammals. A phenylquinone-induced writhing test in mice (PQW) was used as an assay to detect analgesia. The procedure employed was a modification of Siegmund, E., Cadmus, R. and Lu, G: Proc. Soc. Exptl. Bio. Med., 95: 729 (1957). 12.5 mg of phenyl-p-benzoquinone were dissolved in 5 ml of 95% ethanol and q.s. to 100 ml with distilled water and administered to mice (10 ml/kg, i.p.). This produces a characteristic "writhe" which is defined as an inward rotation of one or more feet with twisting and turning of the trunk, drawing in of the abdominal wall, lordosis and arching of the back.
A total of 28 male, CD-1 mice (18 to 30 grams) were employed for a time response. Animals recived food and water ad libitum. Drugs to be tested were prepared with distilled water and, if insoluble, one drop of a suitable surfactant was added.
Twenty animals (5/group) were administered the drug 15, 30, 45 and 60 minutes prior to phenylquinone injections. Control animals (2/group) received an equal amount of vehicle. After the administration of phenylquinone the mice were placed separately into one-liter beakers and 5 minutes were allowed to lapse. The mice were then observed for a period of 10 minutes and the number of writhes were recorded for each animal. The formula for computing percent inhibition is: [formula]
The time period with the greatest percent of inhibition is considered the peak time.
A dose range is run in the same fashion as a time response except 10 animals per group were tested at the peak time of drug activity. Fifty animals, 4 drug groups, and a vehicle control were employed. Animals were dosed and tested in a randomized manner. An estimated ED50 was calculated by a computer linear regression analysis.
A general note: In writhing tests, fewer writhes than in controls are read as antinociception.

For assay [1], the system named is spontaneous hypertensive rat. As to the kind of experiment: antihypertensive activity, spontaneous hypertensive rat (SHR) test, indirect tail cuff method. The class given is in vivo. Conditions: 50 mg/kg PO. How it is done:
Compounds of this invention are useful as antihypertensive agents due to their ability to depress blood pressure in mammals. Antihypertensive activity is measured in the spontaneous hypertensive rat by the indirect tail cuff method described by A. Schwartz, Ed., Methods in Pharmacology, Vol. page 135, Appleton Century Crafts, New York (1971). […] The drop in blood pressure is measured on the third day following administration. The antihypertensive activity is expressed as mm Hg decrease in mean arterial blood pressure.

Structures can show the parent of a compound that is named as a salt. Where two headings read alike, the source gives them in different places.

Regarding `CC1Oc2ccccc2COC12CCN(CC#N)CC2` (stereo not shown) [Example 45, 1'-(Cyanomethyl)-2-methylspiro[2H-1,4-benzodioxepin-3(5H)-4'-piperidine]], the change in vivo at 20 mg/kg in the assay with mice (Table II, 20 mg/kg SC) was -15%. Moreover, the “SHR mm Hg (decrease in mean arterial blood pressure)” value in assay [1] (Table II) is -29 mm Hg. For the compound `CC1Oc2ccccc2COC12CCN(CCc1ccccc1)CC2` (stereo not shown) [Example 46, 2-Methyl-1'-(2-phenylethyl)-spiro[2H-1,4-benzodioxepin-3(5H)4'-piperidine]hydrochloride], in the assay with mice (Table II), the change in vivo at 5 mg/kg was -87%. Further, the “SHR mm Hg (decrease in mean arterial blood pressure)” value in assay [1] (Table II) was -12 mm Hg. Turning to `CC1Oc2ccccc2COC12CCN(CCO)CC2` (stereo not shown) [Example 48, 1'-(2-Hydroxyethyl)-2-methylspiro[2H-1,4-benzodioxepin-3(5H)4'-piperidine]], the change in vivo at 20 mg/kg with mice (Table II, 20 mg/kg SC) is -39%. The “SHR mm Hg (decrease in mean arterial blood pressure)” value in assay [1] (Table II) was -23 mm Hg.

The ED50 is the dose that gives a 50% effect, or the effect in half of the subjects. As to `CC1Oc2ccccc2COC12CCN(CCN)CC2` (stereo not shown) [Example 49, 1'-(2-Aminoethyl)-2-methylspiro[2H-1,4-benzodioxepin-3(5H)4'-piperidine]dioxalate], the change in vivo at 20 mg/kg with mice (Table II, 20 mg/kg SC) was -85%. Further, the ED50 with mice (Table II, SC, computer linear regression, peak time) stood at 4.7 mg/kg. Besides, the “SHR mm Hg (decrease in mean arterial blood pressure)” value in assay [1] (Table II) is reported as -23 mm Hg. Regarding `CC1Oc2ccccc2COC12CCN(CCNC(=N)N)CC2` (stereo not shown) [Example 50, [2-(2-Methylspiro[2H-1,4-benzodioxepin-3(5H)4'-piperidin]-1'-yl)ethyl]-guanidine hemisulfate hemihydrate], the change in vivo at 20 mg/kg with mice (Table II, 20 mg/kg SC) is -8%. Consider `CC1Oc2ccccc2COC12CCN(CC1CC1)CC2` (stereo not shown) [Example 51, 1'-Cyclopropylmethyl-2-methylspiro[2H-1,4-benzodioxepin-3(5H)4'-piperidine]oxalate], for which, in the assay with mice (Table II, 10 mg/kg SC), the change in vivo at 10 mg/kg is -61%. Turning to `CC1Oc2ccccc2COC12CCN(CCCc1noc3cc(F)ccc13)CC2` (stereo not shown) [Example 52, 1'-[3-(6-Fluoro-1,2-benzisoxazol-3-yl)propyl]-2-methylspiro[2H-1,4-benzodioxepin-3(5H)4'-piperidine]maleate], in the assay with mice (Table II), the change in vivo at 5 mg/kg was -82%. The “SHR mm Hg (decrease in mean arterial blood pressure)” value in assay [1] (Table II) was -67 mm Hg. For the compound `Cc1[nH]c2ccccc2c1CCCN1CCC2(CC1)OCc1ccccc1OC2C` (stereo not shown) [Example 53, 2-Methyl-1'-[3-(2-methylindol-3-yl)propyl]spiro[2H-1,4-benzodioxepin-3(5H)4'-piperidine]fumarate], in the assay with mice (Table II, 20 mg/kg SC), the change in vivo at 20 mg/kg is -30%. Further, the “SHR mm Hg (decrease in mean arterial blood pressure)” value in assay [1] (Table II) is given as -32 mm Hg. As for `CCCCCN1CCC2(CC1)OCc1ccccc1OC2C` (stereo not shown) [Example 54, 2-Methyl-1'-pentylspiro[2H-1,4-benzodioxepin-3(5H)4'-piperidine]oxalate], the change in vivo at 20 mg/kg in the assay with mice (Table II, 20 mg/kg SC) is -36%. As for `CC1Oc2ccccc2COC12CCN(CCCN)CC2` (stereo not shown) [Example 55, 2-Methyl-1'-(3-aminopropyl)spiro[2H-1,4-benzodioxepin-3(5H)4'-piperidine]dioxalate], in the assay with mice (Table II, 20 mg/kg SC), the change in vivo at 20 mg/kg is -28%. Besides, the “SHR mm Hg (decrease in mean arterial blood pressure)” value in assay [1] (Table II) was -28 mm Hg. The matching figures for `CC1Oc2ccccc2COC12CCN(CCc1ccc([N+](=O)[O-])cc1)CC2` (stereo not shown) [Example 56, 1'-[2-(4-Nitrophenyl)ethyl]2-methylspiro[2H-1,4-benzodioxepin-3(5H)4'piperidine]oxalate]: -30% and -17 mm Hg. Taken in the same sequence, the figures for `CC1Oc2ccccc2COC12CCN(CCc1ccc(N)cc1)CC2` (stereo not shown) [Example 57, 1'-[2-(4-Aminophenyl)ethyl]-2-methylspiro[2H-1,4-benzodioxepin-3(5H)4'-piperidine]maleate hydrate] were -99% and -12 mm Hg.

Take `CC1Oc2ccccc2COC12CCN(CCN(C)C)CC2` (stereo not shown) [Example 58, 1'-[2-(N,N-dimethylamino)ethyl]-2-methylspiro[2H-1,4-benzodioxepin-3(5H)4'-piperidine]dihydrochloride]: in the assay on mice (Table II, 20 mg/kg SC), the change in vivo at 20 mg/kg was -6%.

Regarding `CC1Oc2ccccc2COC12CCN(CCN1CCOCC1)CC2` (stereo not shown) [Example 59, 1'-[2-(1-Morpholino)ethyl]-2-methylspiro[2H-1,4-benzodioxepin-3(5H)4'-piperidine]dihydrochloride], in the assay with mice (Table II, 20 mg/kg SC), the change in vivo at 20 mg/kg was -52%. Moreover, the “SHR mm Hg (decrease in mean arterial blood pressure)” value in assay [1] (Table II) is given as -18 mm Hg. On to `CC1Oc2ccccc2COC12CCN(CCC(C#N)(c1ccccc1)c1ccccc1)CC2` (stereo not shown) [Example 61, 2-Methyl-1'-[3-cyano-3,3-diphenylpropyl]spiro[2H-1,4-benzodioxepin-3(5H)4'-piperidine]hydrochloride], for which, in the assay with mice (sc), the change in vivo at 20 mg/kg was -25%. With `CC1Oc2cc(Cl)ccc2COC12CCNCC2` (stereo not shown) [Example 65, 8-Chloro-2-methylspiro[2H-1,4-benzodioxepin-3(5H)4'-piperidine]oxalate], the change in vivo at 10 mg/kg in the assay on mice (sc) is -98%. Turning to `CC1Oc2cc(Cl)ccc2COC12CCN(CC#N)CC2` (stereo not shown) [Example 66, 8-Chloro-1'-cyanomethyl-2-methylspiro[2H-1,4-benzodioxepin-3(5H)4'-piperidine]], in the assay on mice (Table II, 20 mg/kg SC), the change in vivo at 20 mg/kg is -9%.

For `CC1Oc2ccccc2COC12CCN(CCC#N)CC2` (stereo not shown) [Example 67, 1'-(2-Cyanoethyl)-2-methylspiro[2H-1,4-benzodioxepin-3(5H)4'-piperidine]oxalate], the change in vivo at 20 mg/kg in the assay with mice (Table II, 20 mg/kg SC) is -40%. Further, the “SHR mm Hg (decrease in mean arterial blood pressure)” value in assay [1] (Table II) is given as -30 mm Hg. With `COC(=N)N1CCC2(CC1)OCc1ccccc1OC2C` (stereo not shown) [Example 69, 2-Methylspiro[2H-1,4-benzodioxepin-3(5H)4'-piperidine]-1'-carboximidic acid, methyl ester hydrochloride], the change in vivo at 20 mg/kg with mice (Table III, 20 mg/kg SC) was -74%. As to `CNC(=O)N1CCC2(CC1)OCc1ccccc1OC2C` (stereo not shown) [Example 70, N,2-Dimethylspiro[2H-1,4-benzodioxepin-3(5H)4'-piperidine]-1'-carboxamide], the change in vivo at 20 mg/kg in the assay on mice (Table III, 20 mg/kg SC) is -35%. Besides, in assay [1] (Table III), the “SHR mm Hg (decrease in mean arterial blood pressure)” value is listed as -39 mm Hg. With `CCNC(=O)N1CCC2(CC1)OCc1ccccc1OC2C` (stereo not shown) [Example 71, N-Ethyl-2-methylspiro[2H-1,4-benzodioxepin-3(5H)4'-piperidine]-1'-carboxamide], the change in vivo at 20 mg/kg in the assay on mice (Table III, 20 mg/kg SC) was -46%. Moreover, the “SHR mm Hg (decrease in mean arterial blood pressure)” value in assay [1] (Table III) is recorded as -67 mm Hg. Consider `CC(=O)N1CCC2(CC1)OCc1ccccc1OC2C` (stereo not shown) [Example 73, 1'-Acetyl-2-methylspiro[2H-1,4-benzodioxepin-3(5H)4'-piperidine]], for which, in the assay on mice (Table III, 20 mg/kg SC), the change in vivo at 20 mg/kg was -27%.

Regarding `CC1Oc2c(Cl)cccc2COC12CCN(CCCC(c1ccccc1)c1ccccc1)CC2` (stereo not shown) [Example 74, 1'-(4,4-Diphenylbutyl)-9-chloro-2-methylspiro[2H-1,4-benzodioxepin-3(5H)4'-piperidine]hydrochloride], in the assay on mice (Table III, 20 mg/kg SC), the change in vivo at 20 mg/kg is -25%. With `CC1Oc2ccc([N+](=O)[O-])cc2COC12CCNCC2` (stereo not shown) [Example 81, 2-Methyl-7-nitrospiro[2H-1,4-benzodioxepin-3(5H)4'-piperidine]hydrochloride], the change in vivo at 20 mg/kg with mice (Table III, 20 mg/kg SC) is -80%. On the same count and under the same terms, under `CC1Oc2ccc(Cl)cc2COC12CCN(C(c1ccc(F)cc1)c1ccc(F)cc1)CC2` (stereo not shown) [Example 82, 7-Chloro-2-methyl-1'-bis(4-fluorophenyl)methylspiro[2H-1,4-benzodioxepin-3(5H)4'-piperidine]hydrochloride] stands -30%; under `CC1Oc2ccccc2COC12CCN(CCCCC(c1ccc(F)cc1)c1ccc(F)cc1)CC2` (stereo not shown) [Example 84, 2-Methyl-1'-[5,5-bis(4-fluorophenyl)pentyl]spiro[2H-1,4-benzodioxepin-3(5H)4'-piperidine]hydrochloride], -34%.

Turning to `CC1Oc2ccccc2COC12CCN(CC(O)COc1ccc(F)cc1)CC2` (stereo not shown) [Example 90, 2-Methyl-1'-[2-hydroxy-3-(4-fluorophenoxy)propyl]spiro[2H-1,4-benzodioxepin-3(5H)4'-piperidine]hydrochloride], the change in vivo at 20 mg/kg in the assay on mice (Table III, 20 mg/kg SC) was -99%. Consider `COc1ccc2c(c1)c(CC(=O)O)c(C)n2C(=O)c1ccc(Cl)cc1` [Indomethacin, reference compound], for which the median effective dose (ED50) in the assay with mice (po) stood at 0.7 mg/kg.

As to `CCC(=O)O[C@](Cc1ccccc1)(c1ccccc1)[C@H](C)CN(C)C` [Propoxyphene, reference compound], the ED50 with mice (sc) amounted to 3.9 mg/kg.
